Measurements published in patent US20240415802A1, “GENISTEIN FOR ASTHMA TREATMENT” (University of South Florida, priority 2022, published 2024).

Columns and labels:
PAI-1 [1] = molecular target: T1, PAI-1 (Mus musculus, UniProt P22777); conditions: OVA challenge model of allergic asthma; cited from earlier work
T1 sequence (P22777 23-402): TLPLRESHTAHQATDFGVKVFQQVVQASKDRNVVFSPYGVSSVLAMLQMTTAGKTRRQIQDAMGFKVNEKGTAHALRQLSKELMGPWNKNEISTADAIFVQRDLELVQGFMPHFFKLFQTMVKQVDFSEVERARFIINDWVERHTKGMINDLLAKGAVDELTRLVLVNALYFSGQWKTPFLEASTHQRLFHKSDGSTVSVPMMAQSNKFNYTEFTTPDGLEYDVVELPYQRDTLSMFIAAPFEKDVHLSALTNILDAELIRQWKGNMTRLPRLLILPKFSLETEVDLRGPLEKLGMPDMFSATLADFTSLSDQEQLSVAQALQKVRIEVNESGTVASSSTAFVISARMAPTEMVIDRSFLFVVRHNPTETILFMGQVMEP

PAI-1 4G promoter [2] = assay: PAI-1 promoter luciferase reporter assay in stimulated LAD2 mast cells; type: cell-based, human; conditions: cells transfected with 4G vector, genistein pretreatment 5 μM 1 hour
Protocol: LAD2 cells, a human mast cell line, were cultured and transfected with luciferase plasmids containing a 4G, 5G or pGL3-basic vector to determine the promotor activity. These LAD2 cells were stimulated overnight with IgE (100 ng/mL) and streptavidin (500 ng/mL) (IgE+streptavidin) for IgE-receptor cross-linking or Ionomycin (100 ng/mL) and phorbol myristate acetate (PMA, 10 ng/ml) (Ionomycin+PMA) with or without genistein pretreatment (5 μM) for 1 hour. […] LAD2 cells transfected with the 5G vector didn't increase promoter activity by IgE+Streptavidin/Ionomycin+PMA stimulation compared to no treatment (FIGS. 2C and 2D).
Human mast cells (LAD2) were grown in complete serum-free growth media (Stem pro-34 with the supplement, penicillin/streptomycin, L-glutamine and SCF recombinant, Invitrogen, Waltham, MA, USA). Cells were cultured in cytokine-free media (without SCF recombinant) at density of ˜0.5×10^6 per mL for a day prior to transfection and stimulation. Cells were transfected with luciferase plasmids containing different Pai-1 polymorphisms, 4G4G, 5G5G, pGL3-luciferase reporter basic vector (empty backbone, Promega, Madison, WI) using Lipofectamine 3000 transfection reagent (Invitrogen, Waltham, MA, USA). […] The firefly luciferase activity and Renilla luciferase activity were measured sequentially.

PAI-1 [3] = conditions: normal bronchial epithelial cells; cited from earlier work
PAI-1 4G promoter [4] = assay: PAI-1 promoter luciferase reporter assay in TGF-β stimulated NHBE cells; type: cell-based, human; conditions: NHBE cells transfected with 4G vector; TGF-β 2 ng/mL 6 hours; genistein pretreatment 5 μM 1 hour; p=0.007
Protocol: Normal human bronchial epithelial cells (NHBE) and a human mast cell line, LAD2, were cultured and transfected with luciferase plasmids containing a 4G, 5G or pGL3-basic vector (empty backbone). […] (FIG. 1B)
Normal human bronchial epithelial cells (NHBE) were cultured in 5% CO2 chamber at 37° C. with epithelial cell growth basal media (BEGM, Lonza). Cells were seeded on type 1 collagen-coated plate. Prior to transfection and stimulation, NHBEs were cultured without hydrocortisone (HC) for a day or two, at ˜80% confluency in 12 wells. Passage 2 or 3 was used for the experiment. Cells were transfected with luciferase plasmids containing different Pai-1 polymorphisms, 4G4G, 5G5G, pGL3-luciferase reporter basic vector (empty backbone, Promega, Madison, WI, USA) using Lipofectamine 3000 transfection reagent (Invitrogen, Waltham, MA, USA). Cells were stimulated for 6 hours with TGF-β (2 ng/mL, R&D Systems, Minneapolis, MN, USA) with and without genistein (Sigma-Aldrich, St. Louis, MO, USA) pretreatment (5 μM) for 1 hour. Cells were harvested and lysed in 1×PLB reagent prior to performing Dual-luciferase report assay (DLR assay, Promega, Madison, WI, USA). The firefly luciferase activity and Renilla luciferase activity were measured sequentially.

## O=C(O)C(=O)c1cn(Cc2ccccc2)c2ccc(-c3ccc(OC(F)(F)F)cc3)cc12 [Tiplaxtinin]
PAI-1 [1]
  Airway hyperresponsiveness (AHR): reduced
  Degree of eosinophilic airway inflammation: reduced

## O=c1c(-c2ccc(O)cc2)coc2cc(O)cc(O)c12 [genistein, 5,7-dihydroxy-3-(4-hydroxyphenyl)-chromen-4-onc]
PAI-1 4G promoter [2]; IgE 100 ng/mL + streptavidin 500 ng/mL, p=0.05
  PAI-1 4G promoter activity increased by IgE+Streptavidin stimulation: blocked by genistein pretreatment significantly
PAI-1 4G promoter [2]; Ionomycin 100 ng/mL + PMA 10 ng/ml, p<0.05
  PAI-1 4G promoter activity increased by Ionomycin+PMA stimulation: blocked by genistein pretreatment significantly
PAI-1 [3]
  TGF-β1-induced PAI-1 production: downregulation
PAI-1 4G promoter [4]
  PAI-1 4G promoter activity increased by TGF-β1 stimulation: blocked by genistein pretreatment significantly
